In the supplement of paper PMC11208160:

experiment: recombinant UMI read abundance after kanamycin selection (control-corrected) (log10(CPM+1)); higher = more efficient recombination; extreme values may be limits of the assay; sequences stand for … in AGTGCAGAGAAAATCGGCCAGTTTTCTCTGCCTGCAGTCCGCATGCCGTGGGACCCCTTGGGTTCTAACCTGTTGCCTAGATTTATGCAGCGGACTGCCTTTCTCCCAAAGTGATAAACCGG…AGGTTGGTTTCACT; site = the 11-nt donor
In short: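 Two replicates each of selected and unselected plating were used in this pooled Escherichia coli screen of donor and donor-binding-loop pairs for the IS621 bridge recombinase. Selection was with IPTG (0.07 mM) and kanamycin. Counts of recombinant UMIs, amplified across the donor–target junction, were converted to CPM, averaged, scaled by control-derived factors and reported as log10(CPM+1).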
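Also: IS621 bridge recombinase in Escherichia coli cells against a fixed T5 target plasmid.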

Row | Sequence | recombinant UMI read abundance (log10)
1 | AGATCATCATGGACCGGTTTTCCCGGTAATCCGTATTTGCT (site GGATCATCTAG) | 0.911
2 | AGATCATCATGGACCGGTTTTCCCGGTAATCCGTATTTGCT (site TGATCATCTAG) | 1.75
3 | AGATGGGCATGGACCGGTTTTCCCGGTAATCCGTATTTGAG (site AGATGGGCTCT) | 1.06
4 | AGATTAGCATGGACCGGTTTTCCCGGTAATCCGTATTTGAC (site AGATTAGCTGT) | 2.75
5 | AGATTATCATGGACCGGTTTTCCCGGTAATCCGTATTTGGA (site AGATTATCTTC) | 1.9
6 | AGATTCTCATGGACCGGTTTTCCCGGTAATCCGTATTTGTG (site AGATTCTCTCA) | 2.63
7 | AGCAGAGCATGGACCGGTTTTCCCGGTAATCCGTATTTGAG (site AGCAGAGCTCT) | 2.54
8 | AGCAGTACATGGACCGGTTTTCCCGGTAATCCGTATTTGAT (site AGCAGTACTAT) | 1.79
9 | AGCATTGCATGGACCGGTTTTCCCGGTAATCCGTATTTGAA (site AGCATTGCTTT) | 2.4
10 | AGCATTTCATGGACCGGTTTTCCCGGTAATCCGTATTTGAC (site AGCATTTCTGT) | 0.795
11 | AGCATTTCATGGACCGGTTTTCCCGGTAATCCGTATTTGAC (site AGCCTTTCTGT) | 0
12 | AGCATTTCATGGACCGGTTTTCCCGGTAATCCGTATTTGAC (site AGCGTTTCTGT) | 0
13 | AGCATTTCATGGACCGGTTTTCCCGGTAATCCGTATTTGAC (site AGCTTTTCTGT) | 0.236
14 | AGCCACCCATGGACCGGTTTTCCCGGTAATCCGTATTTGTT (site AGCCACCCTAA) | 0.0153
15 | AGCCACCCATGGACCGGTTTTCCCGGTAATCCGTATTTGTT (site CGCCACCCTAA) | 0.026
16 | AGCCACCCATGGACCGGTTTTCCCGGTAATCCGTATTTGTT (site GGCCACCCTAA) | 0
17 | AGCCACCCATGGACCGGTTTTCCCGGTAATCCGTATTTGTT (site TGCCACCCTAA) | 0
18 | AGCCAGACATGGACCGGTTTTCCCGGTAATCCGTATTTGCA (site AGCCAGACTTG) | 2.18
19 | AGCCAGACATGGACCGGTTTTCCCGGTAATCCGTATTTGCA (site AGGAAGACTTG) | 0
20 | AGCCCAGCATGGACCGGTTTTCCCGGTAATCCGTATTTGTT (site AGCCAAGCTAA) | 0.0134
21 | AGCCCAGCATGGACCGGTTTTCCCGGTAATCCGTATTTGTT (site AGCCCAGCTAA) | 0.602
22 | AGCCCAGCATGGACCGGTTTTCCCGGTAATCCGTATTTGTT (site AGCCGAGCTAA) | 0.0227
23 | AGCCCAGCATGGACCGGTTTTCCCGGTAATCCGTATTTGTT (site AGCCTAGCTAA) | 0.0205
24 | AGCCCCGCATGGACCGGTTTTCCCGGTAATCCGTATTTGTT (site AGCCCCGCTAA) | 1.12
25 | AGCCCGCCATGGACCGGTTTTCCCGGTAATCCGTATTTGGG (site AGCCCGCCTCC) | 0.00589

Row | Sequence | recombinant UMI read abundance (log10)
26 | AGCCGGCCATGGACCGGTTTTCCCGGTAATCCGTATTTGAT (site AGCCGGCCTAT) | 0.00427
27 | AGCCGTACATGGACCGGTTTTCCCGGTAATCCGTATTTGCT (site AGCCGTACTAG) | 1.74
28 | AGCCGTACATGGACCGGTTTTCCCGGTAATCCGTATTTGCT (site CGCCGTACTAG) | 0.697
29 | AGCCGTACATGGACCGGTTTTCCCGGTAATCCGTATTTGCT (site GGCCGTACTAG) | 0
30 | AGCCGTACATGGACCGGTTTTCCCGGTAATCCGTATTTGCT (site TGCCGTACTAG) | 1.18
31 | AGCCTAACATGGACCGGTTTTCCCGGTAATCCGTATTTGGG (site AGCCTAACTCC) | 0.0227
32 | AGCCTAACATGGACCGGTTTTCCCGGTAATCCGTATTTGTT (site AGCCTAACTAA) | 0.00538
33 | AGCCTAACATGGACCGGTTTTCCCGGTAATCCGTATTTGTT (site AGCCTACCTAA) | 0.024
34 | AGCCTAACATGGACCGGTTTTCCCGGTAATCCGTATTTGTT (site AGCCTAGCTAA) | 0.0126
35 | AGCCTAACATGGACCGGTTTTCCCGGTAATCCGTATTTGTT (site AGCCTATCTAA) | 0.00871
36 | AGCCTAGCATGGACCGGTTTTCCCGGTAATCCGTATTTGTT (site AACCTAGCTAA) | 0.00661
37 | AGCCTAGCATGGACCGGTTTTCCCGGTAATCCGTATTTGTT (site ACCCTAGCTAA) | 0.0311
38 | AGCCTAGCATGGACCGGTTTTCCCGGTAATCCGTATTTGTT (site AGACTAGCTAA) | 0.00397
39 | AGCCTAGCATGGACCGGTTTTCCCGGTAATCCGTATTTGTT (site AGCATAGCTAA) | 0.00842
40 | AGCCTAGCATGGACCGGTTTTCCCGGTAATCCGTATTTGTT (site AGCCAAGCTAA) | 0.0196
41 | AGCCTAGCATGGACCGGTTTTCCCGGTAATCCGTATTTGTT (site AGCCCAGCTAA) | 0.00418
42 | AGCCTAGCATGGACCGGTTTTCCCGGTAATCCGTATTTGTT (site AGCCGAGCTAA) | 0.0175
43 | AGCCTAGCATGGACCGGTTTTCCCGGTAATCCGTATTTGTT (site AGCCTAACTAA) | 0.0384
44 | AGCCTAGCATGGACCGGTTTTCCCGGTAATCCGTATTTGTT (site AGCCTACCTAA) | 0.0078
45 | AGCCTAGCATGGACCGGTTTTCCCGGTAATCCGTATTTGTT (site AGCCTAGCTAA) | 0.0154
46 | AGCCTAGCATGGACCGGTTTTCCCGGTAATCCGTATTTGTT (site AGCCTAGCTAC) | 0
47 | AGCCTAGCATGGACCGGTTTTCCCGGTAATCCGTATTTGTT (site AGCCTAGCTAG) | 0
48 | AGCCTAGCATGGACCGGTTTTCCCGGTAATCCGTATTTGTT (site AGCCTAGCTAT) | 0.0124
49 | AGCCTAGCATGGACCGGTTTTCCCGGTAATCCGTATTTGTT (site AGCCTAGCTCA) | 0.0329
50 | AGCCTAGCATGGACCGGTTTTCCCGGTAATCCGTATTTGTT (site AGCCTAGCTGA) | 0

Row | Sequence | recombinant UMI read abundance (log10)
51 | AGCCTAGCATGGACCGGTTTTCCCGGTAATCCGTATTTGTT (site AGCCTAGCTTA) | 0.00455
52 | AGCCTAGCATGGACCGGTTTTCCCGGTAATCCGTATTTGTT (site AGCCTATCTAA) | 0.00805
53 | AGCCTAGCATGGACCGGTTTTCCCGGTAATCCGTATTTGTT (site AGCCTCGCTAA) | 0.0288
54 | AGCCTAGCATGGACCGGTTTTCCCGGTAATCCGTATTTGTT (site AGCCTGGCTAA) | 0.0296
55 | AGCCTAGCATGGACCGGTTTTCCCGGTAATCCGTATTTGTT (site AGCCTTGCTAA) | 0.0186
56 | AGCCTAGCATGGACCGGTTTTCCCGGTAATCCGTATTTGTT (site AGCGTAGCTAA) | 0.00795
57 | AGCCTAGCATGGACCGGTTTTCCCGGTAATCCGTATTTGTT (site AGCTTAGCTAA) | 0.0228
58 | AGCCTAGCATGGACCGGTTTTCCCGGTAATCCGTATTTGTT (site AGGCTAGCTAA) | 0.00253
59 | AGCCTAGCATGGACCGGTTTTCCCGGTAATCCGTATTTGTT (site AGTCTAGCTAA) | 0.0113
60 | AGCCTAGCATGGACCGGTTTTCCCGGTAATCCGTATTTGTT (site ATCCTAGCTAA) | 0.0142
61 | AGCCTAGCATGGACCGGTTTTCCCGGTAATCCGTATTTGTT (site CGCCTAGCTAA) | 0.00222
62 | AGCCTAGCATGGACCGGTTTTCCCGGTAATCCGTATTTGTT (site GGCCTAGCTAA) | 0.0159
63 | AGCCTAGCATGGACCGGTTTTCCCGGTAATCCGTATTTGTT (site TGCCTAGCTAA) | 0.00782
64 | AGCCTGGCATGGACCGGTTTTCCCGGTAATCCGTATTTGAC (site AGCCTGGCTGT) | 0
65 | AGCCTTTCATGGACCGGTTTTCCCGGTAATCCGTATTTGAA (site AGCCTTTCTAT) | 0
66 | AGCCTTTCATGGACCGGTTTTCCCGGTAATCCGTATTTGAA (site AGCCTTTCTCT) | 0.00501
67 | AGCCTTTCATGGACCGGTTTTCCCGGTAATCCGTATTTGAA (site AGCCTTTCTGT) | 0
68 | AGCCTTTCATGGACCGGTTTTCCCGGTAATCCGTATTTGAA (site AGCCTTTCTTT) | 0
69 | AGCCTTTCATGGACCGGTTTTCCCGGTAATCCGTATTTGAC (site AACCTTTCTGT) | 0
70 | AGCCTTTCATGGACCGGTTTTCCCGGTAATCCGTATTTGAC (site ACCCTTTCTGT) | 0
71 | AGCCTTTCATGGACCGGTTTTCCCGGTAATCCGTATTTGAC (site AGACTTTCTGT) | 0
72 | AGCCTTTCATGGACCGGTTTTCCCGGTAATCCGTATTTGAC (site AGCATTTCTGT) | 0.00674
73 | AGCCTTTCATGGACCGGTTTTCCCGGTAATCCGTATTTGAC (site AGCCATTCTGT) | 0
74 | AGCCTTTCATGGACCGGTTTTCCCGGTAATCCGTATTTGAC (site AGCCCTTCTGT) | 0
75 | AGCCTTTCATGGACCGGTTTTCCCGGTAATCCGTATTTGAC (site AGCCGTTCTGT) | 0
